Measured values taken from patent US12410179B2, “Modulators of TNF alpha activity and uses thereof” (RayThera, Inc., priority 2023, dated 2025).

Key:
[1] = Caco-2 assay (permeability); format: in vitro ADME; details: human, Caco-2, pH 7.4; for Papp A→B at 2 h, 5 μM: apical to basolateral; for efflux ratio at 2 h, 5 μM: read-out: Caco-2, ER (efflux ratio)
Description: Cells were cultivated for 14-18 days in a cell culture incubator at 37° C., 5% CO2, 95% relative humidity. Cell culture medium was replaced every other day, beginning no later than 24 hours after initial plating.
10 mM stock solutions of test compounds were prepared in DMSO. The stock solutions of positive controls were prepared in DMSO at the concentration of 10 mM.
1) Medium was removed from the reservoir and each Transwell insert and replaced with prewarmed fresh culture medium.
2) Transepithelial electrical resistance (TEER) across the monolayer was measured using Millicell Epithelial Volt-Ohm measuring system (Millipore, USA).
3) The Plate was returned to the incubator once the measurement was done.
1) The Caco-2 plate was removed from the incubator and washed twice with pre-warmed HBSS (10 mM HEPES, pH 7.4), and then incubated at 37° C. for 30 minutes.
The final concentration of DMSO in the incubation system was 0.5%.
3) To determine the rate of drug transport in the apical to basolateral direction.
4) To determine the rate of drug transport in the basolateral to apical direction.
5) The plates were incubated at 37° C. for 2 hours.
6) At the end of the incubation, 50 μL samples from donor sides (apical compartment for Ap→Bl flux, and basolateral compartment for Bl→Ap) and receiver sides (basolateral compartment for Ap→Bl flux, and apical compartment for Bl→Ap) were transferred to wells of a new 96-well plate, followed by the addition of 4 volume of cold methanol containing appropriate internal standards (IS). Samples were vortexed for 5 minutes and then centrifuged at 3,220 g for 40 minutes. An aliquot of 100 μL of the supernatant was mixed with an appropriate volume of ultra-pure water before LC-MS/MS analysis.
100 μL of the Lucifer yellow solution was added to each Transwell insert (apical compartment), followed by filling the wells in the receiver plate (basolateral compartment) with 300 μL of HBSS (10 mM HEPES, pH 7.4).

TNFα [2] = molecular target: T1, TNFα (Homo sapiens, UniProt P01375); assay: HEK-Blue hTNFα reporter assay; format: cell-based; design: purchased R&D biosystem (R&D Systems) 210-TA-020/CF; details: HEK-Blue hTNFα reporter cells; for Emax: read-out: TNFα reporter, Emax
Method in brief: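 Compounds preincubated 1 h at 37 °C with recombinant hTNFα ([…]), then added to HEK293 NF-κB-SEAP reporter cells, 10000 cells/well, 24 h at 37 °C. SEAP read by QUANTI-Blue at OD620; % inhibition versus stimulated and unstimulated controls, IC50 by 4-parameter fit.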

TNFα [3] = molecular target: T1, TNFα; assay: Human dermal fibroblast cell potency assay (IL-8 HTRF); format: cell-based; design: purchased R&D biosystem (R&D Systems) 210-TA-020/CF; details: human dermal fibroblasts, hTNFα 10 ng/mL, 24 h; for Emax: read-out: HDF_IL-8, Emax; for IC50: read-out: HDF_IL-8, IC50
Description: The potency of compounds was examined in Human dermal fibroblast cells (HDF). […] When used for assay, 40 μL of HDF suspension (2000 cell/well) was seeded into each well of 384-well plates (Corning 3764). After overnight culture, replenish fresh culture medium with 5% fetal bovine serum. A serial dilution of work solution of tested compound was made in DMSO with 1000× of final concentration, and 50 nL of compound DMSO solution was transferred into another set of 384-well plates by Echo, and incubated with 10 μL of recombinant hTNFα (R&D biosystem, Cat #210-TA-020/CF) for 1 h at 37° C. The compound/hTNFα mixture was then transferred to the 384-plate containing HDF, and then incubated at 37° C. with 5% CO2 for 24 h. The final concentration of hTNFα is 10 ng/mL.
After incubation, 16 μL of induced cell supernatant was transferred to a new 384-well Optiplate well to mix with 4 μL of IL-8 antibody cocktail (Revvity #62HIL08PEH). After overnight incubation, the plate was read using EnSight™ Multimode Microplate Reader (Perkin Elmer) for HTRF signal.
The percentage of inhibition was calculated by the following formula: % inhibition=(positive control−Sample)/(positive control−negative control)*100
Positive control: HTRF reading of cells with hTNFα stimulation.
Negative control: HTRF reading of cells without hTNFα stimulation.
Sample: HTRF reading of cells with compound at specific concentration and hTNFα stimulation
The % inhibition was plotted against compound concentration in logarithmic scale and the IC50 was rendered using 4-parameter nonlinear regression (GraphPad Prism).

[4] = system: human induced pluripotent stem cell-derived cardiomyocytes (hiPSC-CMs); details: 10 μM
Description: The MEA study was designed to assess the in vitro inhibitory effect of compounds on extracellular field potential (EFP) of human induced pluripotent stem cell-derived cardiomyocytes (hiPSC-CMs) using the Maestro Pro multielectrode arrays system. The concentration response relationship was determined for each compound at 10 μM and 3 μM in duplicate to calculate the % change in EFP parameters.
hiPSC-CMs (Help Stem Cell Innovations Co.) were seeded in fibronectin-coated CytoView MEA 96-White plate at 20000 cells/well. The next day 2/3 of the plating medium volume was removed and replaced by maintenance media. Half of the maintenance medium was removed and replaced every 2 days. On day 6, compounds were made 2× final concentration (20 μM and 6 μM) in maintenance media. Half of the medium was removed from the wells and an equal volume of the appropriate treatment mix was added, and the EFP signal was recorded. […] Data that meet the above criteria for EFP recording quality were further analyzed as described in the following steps: […]
Axis Navigator 2.0.4. software was used to extract the peak current from the original data. The percentage of amplitude change from baseline was calculated using the following equation.
Two important readouts in MEA assay are used to evaluate risk of QT prolongation. […]

TNFα [5] = molecular target: T1, TNFα; assay: TNFα human whole blood screening assay (CD11b on granulocytes, zymosan challenge); format: cell-based; design: a human whole blood assay driven by endogenously expressed TNFα; from tissue; host or cells: human whole blood; details: human whole blood IC50 multiplied by unbound fraction from plasma protein binding; read-out: CD11b in hWB, free IC50
Description: The compounds according to the Examples were assessed in a human whole blood assay driven by endogenously expressed TNFα by measuring the expression of CD11b on granulocytes in human whole blood challenged with zymosan. A serial diluted compound was pre-incubated with human whole blood for 1 h at 37° C./5% CO2. Zymosan (Invivogen, Tlrl-zyn) was added (final assay concentration […] in a total volume of 100 μl) with thorough mixing and incubated for 3 h at 37° C./5% CO2. The samples were then incubated with 10 μl antibody cocktail containing APC-conjugated anti-human CD45 antibody (Biolegend, cat #304012) and PE-conjugated anti-human CD11b antibody (Biolegend, cat #101208) for 30 min at 4° C. The blood was fixed/lysed for 10-15 min at 37° C. using FACS/lysing solution (BD sciences, cat #558049) and analyzed with CytoFlex S (Beckman Coulter). The number of single cells (SSC-A, SSC—W) positive for CD45 and expressing CD11b was determined using FlowJo software (BD Biosciences). Inhibition of CD11b activation was calculated against DMSO control. […]
A calculated IC50 for the free compound (free IC50) that considers the extent of fraction unbound in blood was determined by multiplying the IC50 generated from the human whole blood screening assay by the unbound fraction, generated from the plasma protein binding assay.

[6] = SEAP readout, read-out: IC50 Range

T1 sequence (P01375 77-233 limits assumed): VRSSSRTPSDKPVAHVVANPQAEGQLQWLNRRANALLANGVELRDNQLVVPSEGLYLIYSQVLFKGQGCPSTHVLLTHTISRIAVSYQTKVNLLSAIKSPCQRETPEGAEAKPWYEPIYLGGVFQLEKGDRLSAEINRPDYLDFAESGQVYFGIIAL

CN1C(=O)c2cccc(OC(F)F)c2[C@H]2C[C@@H]1c1nn3ccc(-c4ccc(P(C)(C)=O)nc4)cc3c12 [Example 20]
Papp A→B at 2 h, 5 μM [1]: 1.7 ×10⁻⁶ cm/s | efflux ratio at 2 h, 5 μM [1]: 22.8 | IC50 (TNFα [2]; [6]): < 25 nM | Emax (TNFα [2]): 89% | IC50 (TNFα [2]; read-out: TNFα reporter, IC50): 3.8 nM

CN1C(=O)c2cccc(OC(F)F)c2[C@H]2C[C@@H]1c1nc3ccc(-c4ccc(P(C)(C)=O)nc4)cc3n12 [Comp. Ex #4, reference compound]
Papp A→B at 2 h, 5 μM [1]: 0.6 ×10⁻⁶ cm/s | efflux ratio at 2 h, 5 μM [1]: 47.5 | Emax (TNFα [2]): 82% | IC50 (TNFα [2]; read-out: TNFα reporter, IC50): 7.9 nM

CN1C(=O)c2cccc(OC(F)F)c2[C@H]2C[C@@H]1c1nc3ccc(-c4cnc(C5(N)CCC5)nc4)cc3n12 [Comp. Ex #1, reference compound]
Emax (TNFα [2]): 96% | IC50 (TNFα [2]; read-out: TNFα reporter, IC50): 4.8 nM | Emax (TNFα [3]): 93% | IC50 (TNFα [3]): 6.7 nM | Cardiomyocytes FPDc prolong. [4]: > 20% | EAD (early afterdepolarization) [4]: EAD | IC50 (TNFα [5]): 9.3 nM

CN1C(=O)c2cccc(OC(F)F)c2[C@H]2C[C@@H]1c1nn3ccc(-c4cnc(C5(N)CCC5)nc4)cc3c12 [Example 15]
IC50 (TNFα [2]; [6]): < 25 nM | Emax (TNFα [2]): 95% | IC50 (TNFα [2]; read-out: TNFα reporter, IC50): 4.1 nM | Emax (TNFα [3]): 97% | IC50 (TNFα [3]): 2.8 nM | IC50 (TNFα [5]): 2.1 nM

[2H]C([2H])([2H])N1C(=O)c2cccc(OC(F)F)c2[C@H]2C[C@@H]1c1nn3ccc(-c4cnc(C5(N)CCC5)c(F)c4)nc3c12 [Example 221]
IC50 (TNFα [2]; [6]): < 25 nM

[2H]C([2H])([2H])N1C(=O)c2cccc(OC(F)F)c2[C@H]2C[C@@H]1c1nn3cc(F)c(-c4cnc([C@]5(N)C[C@](C)(C#N)C5)nc4)cc3c12 [Example 244]
IC50 (TNFα [2]; [6]): < 25 nM

CN1C(=O)c2cccc(OC(F)F)c2[C@H]2C[C@@H]1c1nn3cnc(-c4cnc(C5(N)CC(F)(F)C5)nc4)cc3c12 [Example 146]
IC50 (TNFα [2]; [6]): < 25 nM
